From ChEMBL document CHEMBL4219257, “Novel 8-hydroxyquinoline derivatives targeting β-amyloid aggregation, metal chelation and oxidative stress against Alzheimer's disease” (Bioorg Med Chem, 2018)
The source made the active and inactive calls. The rule behind the calls is not given here.

Tests used:
[1] = biological target: T1, Amyloid-beta precursor protein (Homo sapiens, UniProt P05067); experiment: Inhibition of HFIP-pretreated amyloid beta (1 to 42) (unknown origin) self-induced aggregation at 10 uM after 48 hrs by thioflavin T-based fluorometric assay relative to control
[2] = Antioxidant activity assessed as trolox equivalents of AAPH radical scavenging activity at 10 uM preincubated for 15 mins followed by AAPH addition measured every minute for 120 mins by ORAC-FL assay; assay type: functional
[3] = biological target: T1, Amyloid-beta precursor protein; experiment: Inhibition of HFIP-pretreated amyloid beta (1 to 42) (unknown origin) self-induced aggregation after 48 hrs by thioflavin T-based fluorometric assay
[4] = Inhibition of Zn2+ - induced amyloid beta (1 to 42) (unknown origin) aggregation at 50 uM after 24 hrs by thioflavin T-based fluorometric assay relative to control
[5] = Inhibition of Cu2+ - induced amyloid beta (1 to 42) (unknown origin) aggregation at 50 uM after 24 hrs by thioflavin T-based fluorometric assay relative to control
[6] = in vitro; settings: PAMPA
Description: Permeability of the compound at 100 ug/ml after 10 hrs by PAMPA

[7] = test system: Mus musculus; experiment: Acute toxicity in Kunming mouse assessed as death up to 2000 mg/kg, po measured after 4 hrs; assay type: organism-based; settings: in vivo
[8] = Metal chelating activity assessed as compound-Zn2+ complex formation by measuring maximum absorption wavelength at 50 uM measured after 30 mins by UV-vis spectrophotometric method (reference value: 241 nanometer)
[9] = test system: PC-12; experiment: Cytoprotection against H2O2-induced apoptosis in rat PC12 cells assessed as early apoptotic cells at 2.5 uM preincubated for 4 hrs followed by H2O2 addition measured after 24 hrs by Annexin V-FITC/propidium iodide staining based flow cytometry (reference value: 1.5%); assay type: functional
[10] = test system: PC-12; experiment: Inhibition of H2O2-induced ROS level in rat PC12 cells assessed as mean fluorescence intensity at 2.5 uM preincubated for 4 hrs followed by H2O2 addition measured after 24 hrs by DCFH-DA staining based flow cytometry (reference value: 16947); assay type: functional
[11] = test system: PC-12; experiment: Cytoprotection against H2O2-induced apoptosis in rat PC12 cells assessed as late apoptotic cells at 2.5 uM preincubated for 4 hrs followed by H2O2 addition measured after 24 hrs by Annexin V-FITC/propidium iodide staining based flow cytometry (reference value: 32.6%); assay type: functional
[12] = Metal chelating activity assessed as compound-Zn2+ complex formation at 50 uM measured after 20 mins by fluorescence spectroscopic method
[13] = test system: PC-12; experiment: Inhibition of H2O2-induced ROS level in rat PC12 cells assessed as mean fluorescence intensity at 10 uM preincubated for 4 hrs followed by H2O2 addition measured after 24 hrs by DCFH-DA staining based flow cytometry (reference value: 16947); assay type: functional
[14] = test system: Mus musculus; experiment: Acute toxicity in Kunming mouse assessed as effect on water consumption up to 2000 mg/kg, po measured after 4 hrs; assay type: organism-based; settings: in vivo
[15] = test system: PC-12; experiment: Cytoprotection against H2O2-induced apoptosis in rat PC12 cells assessed as live cells at 2.5 uM preincubated for 4 hrs followed by H2O2 addition measured after 24 hrs by Annexin V-FITC/propidium iodide staining based flow cytometry (reference value: 57%); assay type: functional
[16] = Metal chelating activity assessed as compound-Cu2+ complex formation at 50 uM measured after 20 mins by fluorescence spectroscopic method
[17] = test system: PC-12; experiment: Cytoprotection against H2O2-induced apoptosis in rat PC12 cells assessed as live cells at 10 uM preincubated for 4 hrs followed by H2O2 addition measured after 24 hrs by Annexin V-FITC/propidium iodide staining based flow cytometry (reference value: 57%); assay type: functional
[18] = Metal chelating activity assessed as compound-Fe3+ complex formation at 50 uM measured after 30 mins by UV-vis spectrophotometric method
[19] = test system: PC-12; experiment: Cytoprotection against H2O2-induced apoptosis in rat PC12 cells assessed as necrotic cells at 5 uM preincubated for 4 hrs followed by H2O2 addition measured after 24 hrs by Annexin V-FITC/propidium iodide staining based flow cytometry (reference value: 8.9%); assay type: functional
[20] = Metal chelating activity assessed as mole fraction of compound required to show 2.3:1 stoichiometry for compound-Cu2+ complex at 50 uM by Job's plot analysis
[21] = test system: PC-12; experiment: Cytoprotection against H2O2-induced oxidative stress in rat PC12 cells assessed as increase in cell viability after 24 hrs by MTT assay; assay type: functional, cell-based
[22] = test system: PC-12; experiment: Cytoprotection against H2O2-induced apoptosis in rat PC12 cells assessed as early apoptotic cells at 5 uM preincubated for 4 hrs followed by H2O2 addition measured after 24 hrs by Annexin V-FITC/propidium iodide staining based flow cytometry (reference value: 1.5%); assay type: functional
[23] = test system: Mus musculus; experiment: Cardiotoxicity in Kunming mouse up to 2000 mg/kg, po measured after 14 days by macroscopic method; assay type: toxicity, organism-based; settings: in vivo, 336 h
[24] = test system: PC-12; experiment: Cytoprotection against rotenone-induced oxidative stress in rat PC12 cells assessed as increase in cell viability up to 10 uM after 24 hrs by MTT assay; assay type: functional, cell-based
[25] = test system: PC-12; experiment: Inhibition of H2O2-induced ROS level in rat PC12 cells assessed as mean fluorescence intensity at 5 uM preincubated for 4 hrs followed by H2O2 addition measured after 24 hrs by DCFH-DA staining based flow cytometry (reference value: 16947); assay type: functional
[26] = test system: Mus musculus; experiment: Acute toxicity in Kunming mouse assessed as fur sleekness up to 2000 mg/kg, po measured after 4 hrs; assay type: organism-based; settings: in vivo
[27] = test system: Mus musculus; experiment: Nephrotoxicity in Kunming mouse up to 2000 mg/kg, po measured after 14 days by macroscopic method; assay type: toxicity, organism-based; settings: in vivo, 336 h
[28] = Metal chelating activity assessed as compound-Fe2+ complex formation at 50 uM measured after 20 mins by fluorescence spectroscopic method
[29] = test system: PC-12; experiment: Cytoprotection against H2O2-induced apoptosis in rat PC12 cells assessed as late apoptotic cells at 10 uM preincubated for 4 hrs followed by H2O2 addition measured after 24 hrs by Annexin V-FITC/propidium iodide staining based flow cytometry (reference value: 32.6%); assay type: functional
[30] = Cytotoxicity against rat PC12 cells assessed as cell viability at 20 uM after 24 hrs by MTT assay relative to control; assay type: cell-based, PC-12; settings: read-out: Activity
[31] = test system: Mus musculus; experiment: Acute toxicity in Kunming mouse assessed as effect on body weight up to 2000 mg/kg, po measured after 4 hrs; assay type: organism-based; settings: in vivo
[32] = Metal chelating activity assessed as mole fraction of compound required to show 2:1 stoichiometry for compound-Zn2+ complex at 50 uM by Job's plot analysis
[33] = test system: PC-12; experiment: Cytoprotection against H2O2-induced apoptosis in rat PC12 cells assessed as live cells at 5 uM preincubated for 4 hrs followed by H2O2 addition measured after 24 hrs by Annexin V-FITC/propidium iodide staining based flow cytometry (reference value: 57%); assay type: functional
[34] = test system: PC-12; experiment: Cytoprotection against oligomycin A-induced oxidative stress in rat PC12 cells assessed as increase in cell viability up to 10 uM after 24 hrs by MTT assay; assay type: functional, cell-based
[35] = test system: PC-12; experiment: Inhibition of H2O2-induced ROS level in rat PC12 cells preincubated for 4 hrs followed by H2O2 addition measured after 24 hrs by DCFH-DA staining based flow cytometry; assay type: functional, cell-based
[36] = test system: Mus musculus; experiment: Acute toxicity in Kunming mouse assessed as mortality up to 2000 mg/kg, po measured after 14 days; assay type: organism-based; settings: in vivo, 336 h
[37] = test system: Mus musculus; experiment: Acute toxicity in Kunming mouse assessed as effect on food consumption up to 2000 mg/kg, po measured after 4 hrs; assay type: organism-based; settings: in vivo
[38] = test system: Mus musculus; experiment: Hepatotoxicity in Kunming mouse up to 2000 mg/kg, po measured after 14 days by macroscopic method; assay type: toxicity, organism-based; settings: in vivo, 336 h
[39] = test system: PC-12; experiment: Cytoprotection against H2O2-induced apoptosis in rat PC12 cells assessed as early apoptotic cells at 10 uM preincubated for 4 hrs followed by H2O2 addition measured after 24 hrs by Annexin V-FITC/propidium iodide staining based flow cytometry (reference value: 1.5%); assay type: functional
[40] = test system: PC-12; experiment: Cytoprotection against H2O2-induced apoptosis in rat PC12 cells assessed as late apoptotic cells at 5 uM preincubated for 4 hrs followed by H2O2 addition measured after 24 hrs by Annexin V-FITC/propidium iodide staining based flow cytometry (reference value: 32.6%); assay type: functional
[41] = Metal chelating activity assessed as compound-Fe2+ complex formation by measuring maximum absorption wavelength at 50 uM measured after 30 mins by UV-vis spectrophotometric method (reference value: 241 nanometer)
[42] = test system: PC-12; experiment: Cytoprotection against H2O2-induced apoptosis in rat PC12 cells assessed as necrotic cells at 2.5 uM preincubated for 4 hrs followed by H2O2 addition measured after 24 hrs by Annexin V-FITC/propidium iodide staining based flow cytometry (reference value: 8.9%); assay type: functional
[43] = Metal chelating activity assessed as compound-Cu2+ complex formation by measuring maximum absorption wavelength at 50 uM measured after 30 mins by UV-vis spectrophotometric method (reference value: 241 nanometer)
[44] = test system: PC-12; experiment: Cytoprotection against H2O2-induced apoptosis in rat PC12 cells assessed as necrotic cells at 10 uM preincubated for 4 hrs followed by H2O2 addition measured after 24 hrs by Annexin V-FITC/propidium iodide staining based flow cytometry (reference value: 8.9%); assay type: functional
[45] = Metal chelating activity assessed as compound-Fe3+ complex formation at 50 uM measured after 20 mins by fluorescence spectroscopic method

T1 sequence (P05067 whole entry): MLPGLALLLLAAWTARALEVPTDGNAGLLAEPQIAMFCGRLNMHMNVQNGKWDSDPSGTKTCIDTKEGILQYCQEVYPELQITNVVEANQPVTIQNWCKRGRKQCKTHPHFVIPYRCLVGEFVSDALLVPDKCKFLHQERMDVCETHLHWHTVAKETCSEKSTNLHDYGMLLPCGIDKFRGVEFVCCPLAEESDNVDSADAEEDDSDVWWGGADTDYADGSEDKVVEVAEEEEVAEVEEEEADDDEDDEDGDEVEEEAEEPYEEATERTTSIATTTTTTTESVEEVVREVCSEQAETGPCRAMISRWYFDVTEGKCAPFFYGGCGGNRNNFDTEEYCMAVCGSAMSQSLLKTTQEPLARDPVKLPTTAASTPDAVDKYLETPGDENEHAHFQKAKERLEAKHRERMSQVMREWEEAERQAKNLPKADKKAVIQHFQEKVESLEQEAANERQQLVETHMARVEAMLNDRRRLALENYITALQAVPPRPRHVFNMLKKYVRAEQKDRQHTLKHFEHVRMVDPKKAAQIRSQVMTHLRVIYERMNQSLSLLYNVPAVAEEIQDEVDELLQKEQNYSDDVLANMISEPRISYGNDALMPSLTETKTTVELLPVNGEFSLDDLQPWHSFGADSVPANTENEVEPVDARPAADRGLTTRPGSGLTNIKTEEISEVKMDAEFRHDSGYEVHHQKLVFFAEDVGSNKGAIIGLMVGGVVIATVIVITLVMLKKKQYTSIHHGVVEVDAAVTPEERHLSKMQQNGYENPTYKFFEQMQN

## O=C(/C=C/c1ccc([N+](=O)[O-])cc1)N1CCN(Cc2ccc(O)c3ncccc23)CC1
[1]
  inhibition: 13.2%
[2]
  Activity: 0.71 equiv

## O=C(/C=C/c1ccc(Br)cc1)N1CCN(Cc2ccc(O)c3ncccc23)CC1
[1]
  inhibition: 8.65%
[2]
  Activity: 0.93 equiv

## N#Cc1ccc(/C=C/C(=O)N2CCN(Cc3ccc(O)c4ncccc34)CC2)cc1
[1]
  inhibition: 27.8%
[2]
  Activity: 1.77 equiv
[3]
  IC50: 16.8 µM

## O=C(O)CCc1ccccc1
[2]
  Activity: 0.86 equiv

## Oc1ccc(/C=C/c2cc(O)cc(O)c2)cc1
[2]
  Activity: 3.28 equiv

## Cc1ccccc1/C=C/C(=O)N1CCN(Cc2ccc(O)c3ncccc23)CC1
[1]
  inhibition: 26.1%
[2]
  Activity: 1.52 equiv
[3]
  IC50: 17.3 µM

## O=C(O)/C=C/c1ccccc1
[2]
  Activity: 1.04 equiv

## O=C(/C=C/c1ccccc1)N1CCN(Cc2ccc(O)c3ncccc23)CC1
[1]
  inhibition: 55%
[4]
  inhibition: 66.5%
[2]
  Activity: 1.65 equiv
[3]
  IC50: 8.86 µM
[5]
  inhibition: 69.8%

## O=C(/C=C/c1ccccc1Cl)N1CCN(Cc2ccc(O)c3ncccc23)CC1
[1]
  inhibition: 61.9%
[6]
  Papp at 10 h, 100 ug/ml: 6.83 ×10⁻⁶ cm/s
[2]
  Activity: 0.71 equiv
[3]
  IC50: 7.35 µM

## C[C@]12CC[C@@H]3c4ccc(O)cc4CC[C@H]3[C@@H]1CC[C@@H]2O [ESTRADIOL]
[6]
  Papp at 10 h, 100 ug/ml: 9.17 ×10⁻⁶ cm/s

## COc1ccc(/C=C/C(=O)N2CCN(Cc3ccc(O)c4ncccc34)CC2)cc1OC
[1]
  inhibition: 29.4%
[6]
  Papp at 10 h, 100 ug/ml: 8.82 ×10⁻⁶ cm/s
[2]
  Activity: 1.08 equiv
[3]
  IC50: 18.9 µM

## O=C(CCc1ccccc1Cl)N1CCN(Cc2ccc(O)c3ncccc23)CC1
[7]
  Activity: Non-Toxic
[1]
  inhibition: 65.8%
[4]
  inhibition: 73.3%
[8]
  Activity: 260 nm
[9]
  Activity: 2.1%
[10]
  Flu intensity: 14556
[11]
  Activity: 14.4%
[12]
  Activity: Active
[13]
  Flu intensity: 9392
[14]
  Activity: Non-Toxic
[15]
  Activity: 79.9%
[16]
  Activity: Active
[17]
  Activity: 90.9%
[6]
  Papp at 10 h, 100 ug/ml: 11.1 ×10⁻⁶ cm/s
[18]
  Activity: Active
[19]
  Activity: 1.4%
[20]
  Activity: 0.7 molar ratio
[21]
  Activity: Dose-dependent effect
[22]
  Activity: 2.3%
[23]
  Activity: Non-Toxic
[24]
  Activity: Active
[25]
  Flu intensity: 10332
[26]
  Activity: Non-Toxic
[27]
  Activity: Non-Toxic
[28]
  Activity: Active
[29]
  Activity: 5.8%
[2]
  Activity: 2.63 equiv
[30]
  viability at 24 h, 20 µM: 83%
[31]
  Activity: Non-Toxic
[32]
  Activity: 0.66 molar ratio
[33]
  Activity: 88.3%
[34]
  Activity: Active
[35]
  inhibition: Dose-dependent effect
[36]
  Activity: Non-Toxic
[37]
  Activity: Non-Toxic
[38]
  Activity: Non-Toxic
[39]
  Activity: 2%
[40]
  Activity: 8%
[41]
  Activity: 265 nm
[42]
  Activity: 3.7%
[3]
  IC50: 5.64 µM
[43]
  Activity: 261 nm
[44]
  Activity: 1.3%
[5]
  inhibition: 88.9%
[45]
  Activity: Active
